Source: the supplement of paper PMC10307832

Tests used:
Assay in all cases: relative viability (nuclei count vs DMSO), 5 days (fraction); higher = more cells survive
[1] = compound: C/C(=N\NC(=S)N1CCC1)/C2=CC=CC=N2 + CC(=O)c1c(C)c2cnc(Nc3ccc(N4CCNCC4)cn3)nc2n(C2CCCC2)c1=O [Palbociclib] (partner 0.5 µM)
Summary of the method: (§1)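 Each reported value is a median over duplicate plates. It expresses relative viability: treated-well nuclei count divided by vehicle-well nuclei count. Lung cancer cell lines in 1536-well plates were dosed by pin tool a day after seeding, alone with one drug or with a fixed anchor-drug dose plus five library-drug doses (not always all listed) in √10 steps, and nuclei were counted after 5 days.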

[2] = compound: C/C(=N\NC(=S)N1CCC1)/C2=CC=CC=N2 + CC(C)C[C@H](NC(=O)[C@H](Cc1ccccc1)NC(=O)c1cnccn1)B(O)O [Bortezomib] (partner 0.002 µM)
Summary of the method: as §1

[3] = compound: C/C(=N\NC(=S)N1CCC1)/C2=CC=CC=N2 + Cc1nc(NC(=O)N2CCC[C@H]2C(N)=O)sc1-c1ccnc(C(C)(C)C(F)(F)F)c1 [Alpelisib] (partner 2 µM)
Summary of the method: as §1

[4] = compound: C/C(=N\NC(=S)N1CCC1)/C2=CC=CC=N2 + Cc1nc(Nc2ncc(C(=O)Nc3c(C)cccc3Cl)s2)cc(N2CCN(CCO)CC2)n1 [Dasatinib] (partner 0.075 µM)
Summary of the method: as §1

Row | Cell Line | relative viability ([1]; first compound 0.05 µM) | relative viability ([1]; first compound 0.1581 µM) | relative viability ([1]; first compound 0.5 µM) | relative viability ([1]; first compound 1.581 µM) | relative viability ([1]; first compound 5 µM) | relative viability ([2]; first compound 0.05 µM) | relative viability ([2]; first compound 0.1581 µM) | relative viability ([2]; first compound 0.5 µM) | relative viability ([2]; first compound 1.581 µM) | relative viability ([2]; first compound 5 µM) | relative viability ([3]; first compound 0.05 µM) | relative viability ([3]; first compound 0.1581 µM) | relative viability ([3]; first compound 0.5 µM) | relative viability ([3]; first compound 1.581 µM) | relative viability ([3]; first compound 5 µM) | relative viability ([4]; first compound 0.05 µM) | relative viability ([4]; first compound 0.1581 µM) | relative viability ([4]; first compound 0.5 µM) | relative viability ([4]; first compound 1.581 µM) | relative viability ([4]; first compound 5 µM)
1 | NCI-H1437 | 0.183 | 0.175 | 0.163 | 0.129 | 0.111 | 0.121 | 0.137 | 0.0867 | 0.0717 | 0.0851 | 0.114 | 0.127 | 0.0974 | 0.0875 | 0.0851 | 0.0967 | 0.128 | 0.0689 | 0.0833 | 0.122
2 | NCI-H2009 | 0.0949 | 0.102 | 0.108 | 0.112 | 0.0775 | 0.117 | 0.126 | 0.138 | 0.122 | 0.0916 | 0.113 | 0.135 | 0.15 | 0.164 | 0.141 | 0.112 | 0.143 | 0.145 | 0.122 | 0.103
3 | NCI-H1651 | 0.159 | 0.134 | 0.129 | 0.0856 | 0.0851 | 0.167 | 0.149 | 0.151 | 0.15 | 0.137 | 0.149 | 0.112 | 0.138 | 0.0797 | 0.0683 | 0.195 | 0.174 | 0.126 | 0.0657 | 0.0655
4 | LCLC-103H | 0.335 | 0.464 | 0.309 | 0.289 | 0.287 | 0.294 | 0.353 | 0.242 | 0.229 | 0.206 | 0.34 | 0.978 | 0.24 | 0.257 | 0.233 | 0.123 | 0.136 | 0.156 | 0.103 | 0.164
5 | NCI-H1666 | 0.617 | 0.608 | 0.564 | 0.495 | 0.509 | 0.218 | 0.271 | 0.232 | 0.198 | 0.221 | 0.198 | 0.208 | 0.23 | 0.212 | 0.224 | 0.335 | 0.307 | 0.301 | 0.28 | 0.296
6 | NCI-H1734 | 0.14 | 0.132 | 0.169 | 0.131 | 0.129 | 0.228 | 0.205 | 0.174 | 0.123 | 0.107 | 0.169 | 0.185 | 0.147 | 0.135 | 0.151 | 0.152 | 0.12 | 0.148 | 0.112 | 0.089
7 | EPLC-272H | 0.117 | 0.138 | 0.155 | 0.056 | 0.0855 | 0.116 | 0.155 | 0.133 | 0.131 | 0.116 | 0.125 | 0.293 | 0.185 | 0.166 | 0.203 | 0.086 | 0.079 | 0.117 | 0.0523 | 0.0578
8 | NCI-H2023 | 0.0715 | 0.0684 | 0.0648 | 0.0566 | 0.086 | 0.096 | 0.0935 | 0.0847 | 0.0887 | 0.0763 | 0.0758 | 0.0838 | 0.0704 | 0.0784 | 0.0669 | 0.0588 | 0.071 | 0.0685 | 0.0516 | 0.0624
9 | BEN | 0.346 | 0.332 | 0.336 | 0.283 | 0.313 | 0.15 | 0.211 | 0.211 | 0.193 | 0.165 | 0.195 | 0.194 | 0.266 | 0.232 | 0.198 | 0.142 | 0.187 | 0.177 | 0.171 | 0.153
10 | COR-L 105 | 0.353 | 0.358 | 0.349 | 0.316 | 0.318 | 0.287 | 0.339 | 0.297 | 0.253 | 0.244 | 0.301 | 0.266 | 0.275 | 0.222 | 0.217 | 0.178 | 0.254 | 0.243 | 0.176 | 0.185
11 | ABC-1 | 0.344 | 0.412 | 0.328 | 0.239 | 0.275 | 0.296 | 0.273 | 0.233 | 0.276 | 0.283 | 0.371 | 0.226 | 0.234 | 0.27 | 0.281 | 0.213 | 0.306 | 0.195 | 0.193 | 0.225
12 | HCC-15 | 0.184 | 0.268 | 0.114 | 0.0996 | 0.091 | 0.133 | 0.0661 | 0.0658 | 0.0754 | 0.0698 | 0.191 | 0.453 | 0.0722 | 0.0749 | 0.0746 | 0.0569 | 0.0708 | 0.0679 | 0.0571 | 0.0669
13 | PC-3 [JPC-3] | 0.328 | 0.485 | 0.409 | 0.362 | 0.373 | 0.377 | 0.318 | 0.312 | 0.292 | 0.215 | 0.556 | 1.03 | 0.341 | 0.282 | 0.208 | 0.252 | 0.281 | 0.238 | 0.235 | 0.188
14 | NCI-H1993 | 0.345 | 0.36 | 0.349 | 0.405 | 0.377 | 0.431 | 0.506 | 0.463 | 0.406 | 0.483 | 0.67 | 0.57 | 0.555 | 0.505 | 0.489 | 0.433 | 0.525 | 0.525 | 0.434 | 0.435
15 | NCI-H1915 | 0.166 | 0.159 | 0.138 | 0.12 | 0.124 | 0.319 | 0.182 | 0.159 | 0.149 | 0.137 | 0.501 | 1.08 | 0.174 | 0.157 | 0.143 | 0.117 | 0.132 | 0.123 | 0.115 | 0.142
16 | RERF-LC-KJ | 0.211 | 0.19 | 0.194 | 0.198 | 0.212 | 0.256 | 0.298 | 0.304 | 0.243 | 0.267 | 0.212 | 0.234 | 0.23 | 0.205 | 0.256 | 0.258 | 0.25 | 0.266 | 0.219 | 0.245
17 | LOU-NH91 | 0.486 | 0.526 | 0.496 | 0.388 | 0.389 | 0.435 | 0.443 | 0.501 | 0.37 | 0.387 | 0.485 | 0.442 | 0.407 | 0.382 | 0.424 | 0.35 | 0.37 | 0.27 | 0.367 | 0.382
